Source: publication PMC9791655 (Journal of Medicinal Chemistry, 2022)
Blank lines part the entries; values can stand above or below the compound they belong to.

Legend:
[1] = molecular target: human PDE9A (Homo sapiens, UniProt O76083); assay: PDE9A scintillation proximity assay with 3H-cGMP; assay type: biochemical
[2] = molecular target: T1, mouse PDE9A (Mus musculus, UniProt O70628); assay: PDE9A scintillation proximity assay, mouse enzyme; assay type: biochemical
T1 sequence (O70628 1-534): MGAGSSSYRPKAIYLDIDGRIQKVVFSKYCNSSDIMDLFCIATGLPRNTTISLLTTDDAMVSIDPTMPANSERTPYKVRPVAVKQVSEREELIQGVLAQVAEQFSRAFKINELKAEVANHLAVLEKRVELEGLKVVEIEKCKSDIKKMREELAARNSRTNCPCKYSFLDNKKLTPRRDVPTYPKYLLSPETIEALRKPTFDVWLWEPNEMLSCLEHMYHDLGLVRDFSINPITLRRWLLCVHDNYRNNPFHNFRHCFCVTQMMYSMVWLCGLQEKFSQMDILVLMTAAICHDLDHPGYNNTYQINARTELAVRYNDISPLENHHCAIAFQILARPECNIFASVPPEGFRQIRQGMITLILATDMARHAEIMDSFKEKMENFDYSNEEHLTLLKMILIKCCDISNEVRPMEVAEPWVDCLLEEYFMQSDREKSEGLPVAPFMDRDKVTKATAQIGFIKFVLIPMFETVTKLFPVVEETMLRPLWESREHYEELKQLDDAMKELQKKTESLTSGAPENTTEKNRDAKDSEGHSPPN

[3] = molecular target: T2, rat PDE9A (Rattus norvegicus, UniProt Q8QZV1); assay: PDE9A scintillation proximity assay, rat enzyme; assay type: biochemical
T2 sequence (Q8QZV1 1-534): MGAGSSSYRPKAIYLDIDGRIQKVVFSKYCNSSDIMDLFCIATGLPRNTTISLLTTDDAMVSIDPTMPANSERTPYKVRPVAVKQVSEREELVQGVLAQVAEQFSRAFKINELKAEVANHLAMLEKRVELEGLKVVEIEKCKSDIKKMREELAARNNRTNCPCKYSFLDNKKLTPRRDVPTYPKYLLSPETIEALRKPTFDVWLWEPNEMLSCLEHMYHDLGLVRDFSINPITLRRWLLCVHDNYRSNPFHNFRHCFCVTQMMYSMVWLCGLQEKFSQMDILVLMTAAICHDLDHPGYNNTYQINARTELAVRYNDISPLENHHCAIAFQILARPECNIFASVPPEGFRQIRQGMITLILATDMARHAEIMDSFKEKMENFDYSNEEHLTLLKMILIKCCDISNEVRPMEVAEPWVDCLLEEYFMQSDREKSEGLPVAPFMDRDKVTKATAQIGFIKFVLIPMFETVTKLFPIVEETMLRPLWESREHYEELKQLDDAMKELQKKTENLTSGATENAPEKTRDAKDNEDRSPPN

[4] = tested on: PDE2A; assay: PDE selectivity profiling; assay type: biochemical, human
[5] = tested on: PDE3B; assay: PDE selectivity profiling; assay type: biochemical, human
[6] = tested on: PDE7B; assay: PDE selectivity profiling; assay type: biochemical, human
[7] = tested on: PDE10A; assay: PDE selectivity profiling; assay type: biochemical, human
[8] = Pharmacokinetics in dogs; assay type: in vivo; settings: dog, blood, iv, 0.3 mg/kg
[9] = tested on: CYP1A2; assay type: in vitro ADME; settings: human hepatocytes
[10] = tested on: CYP3A4 mRNA; assay: CYP induction potential in human hepatocytes; assay type: in vitro ADME
[11] = Metabolite identification assay, hepatocyte incubation; assay type: in vitro ADME, rat
[12] = as above; assay type: in vitro ADME, human
[13] = tested on: 75 off-targets (Panlabs); assay: Panlabs off-target profile
[14] = molecular target: hERG (Homo sapiens, UniProt Q12809); assay: Cardiac ion channel inhibition
Sequence of hERG (Q12809 whole entry): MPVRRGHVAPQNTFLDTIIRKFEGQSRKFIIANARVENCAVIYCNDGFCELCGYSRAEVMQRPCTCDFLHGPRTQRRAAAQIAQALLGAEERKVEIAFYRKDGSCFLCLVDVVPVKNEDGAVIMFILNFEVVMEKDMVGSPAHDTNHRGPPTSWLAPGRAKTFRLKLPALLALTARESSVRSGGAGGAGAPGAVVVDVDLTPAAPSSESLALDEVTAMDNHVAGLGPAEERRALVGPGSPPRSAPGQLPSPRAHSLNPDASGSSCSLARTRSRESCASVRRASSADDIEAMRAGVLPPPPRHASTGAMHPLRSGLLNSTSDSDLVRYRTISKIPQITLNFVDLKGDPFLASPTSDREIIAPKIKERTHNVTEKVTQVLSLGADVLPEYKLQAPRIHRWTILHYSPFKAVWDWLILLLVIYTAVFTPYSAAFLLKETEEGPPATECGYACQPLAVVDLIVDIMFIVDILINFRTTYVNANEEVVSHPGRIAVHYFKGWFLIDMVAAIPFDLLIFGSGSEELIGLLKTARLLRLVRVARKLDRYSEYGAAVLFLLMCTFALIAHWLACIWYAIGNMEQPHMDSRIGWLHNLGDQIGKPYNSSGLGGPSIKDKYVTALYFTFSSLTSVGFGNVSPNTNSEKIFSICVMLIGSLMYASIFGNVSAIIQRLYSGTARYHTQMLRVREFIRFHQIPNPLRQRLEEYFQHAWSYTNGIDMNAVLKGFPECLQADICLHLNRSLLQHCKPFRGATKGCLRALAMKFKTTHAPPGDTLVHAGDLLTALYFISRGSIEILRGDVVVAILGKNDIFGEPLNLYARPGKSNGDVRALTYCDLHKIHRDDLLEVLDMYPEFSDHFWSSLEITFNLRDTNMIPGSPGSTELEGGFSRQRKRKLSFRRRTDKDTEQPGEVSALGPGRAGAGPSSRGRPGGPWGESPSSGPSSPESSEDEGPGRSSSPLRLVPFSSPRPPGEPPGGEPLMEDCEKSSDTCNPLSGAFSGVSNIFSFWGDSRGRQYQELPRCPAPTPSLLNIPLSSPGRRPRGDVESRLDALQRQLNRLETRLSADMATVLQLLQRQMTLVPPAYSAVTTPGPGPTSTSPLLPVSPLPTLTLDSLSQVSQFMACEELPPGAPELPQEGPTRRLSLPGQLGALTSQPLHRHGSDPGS

[15] = molecular target: Nav1.5 (Homo sapiens, UniProt Q14524); assay: Cardiac ion channel inhibition
Sequence of Nav1.5 (Q14524 whole entry): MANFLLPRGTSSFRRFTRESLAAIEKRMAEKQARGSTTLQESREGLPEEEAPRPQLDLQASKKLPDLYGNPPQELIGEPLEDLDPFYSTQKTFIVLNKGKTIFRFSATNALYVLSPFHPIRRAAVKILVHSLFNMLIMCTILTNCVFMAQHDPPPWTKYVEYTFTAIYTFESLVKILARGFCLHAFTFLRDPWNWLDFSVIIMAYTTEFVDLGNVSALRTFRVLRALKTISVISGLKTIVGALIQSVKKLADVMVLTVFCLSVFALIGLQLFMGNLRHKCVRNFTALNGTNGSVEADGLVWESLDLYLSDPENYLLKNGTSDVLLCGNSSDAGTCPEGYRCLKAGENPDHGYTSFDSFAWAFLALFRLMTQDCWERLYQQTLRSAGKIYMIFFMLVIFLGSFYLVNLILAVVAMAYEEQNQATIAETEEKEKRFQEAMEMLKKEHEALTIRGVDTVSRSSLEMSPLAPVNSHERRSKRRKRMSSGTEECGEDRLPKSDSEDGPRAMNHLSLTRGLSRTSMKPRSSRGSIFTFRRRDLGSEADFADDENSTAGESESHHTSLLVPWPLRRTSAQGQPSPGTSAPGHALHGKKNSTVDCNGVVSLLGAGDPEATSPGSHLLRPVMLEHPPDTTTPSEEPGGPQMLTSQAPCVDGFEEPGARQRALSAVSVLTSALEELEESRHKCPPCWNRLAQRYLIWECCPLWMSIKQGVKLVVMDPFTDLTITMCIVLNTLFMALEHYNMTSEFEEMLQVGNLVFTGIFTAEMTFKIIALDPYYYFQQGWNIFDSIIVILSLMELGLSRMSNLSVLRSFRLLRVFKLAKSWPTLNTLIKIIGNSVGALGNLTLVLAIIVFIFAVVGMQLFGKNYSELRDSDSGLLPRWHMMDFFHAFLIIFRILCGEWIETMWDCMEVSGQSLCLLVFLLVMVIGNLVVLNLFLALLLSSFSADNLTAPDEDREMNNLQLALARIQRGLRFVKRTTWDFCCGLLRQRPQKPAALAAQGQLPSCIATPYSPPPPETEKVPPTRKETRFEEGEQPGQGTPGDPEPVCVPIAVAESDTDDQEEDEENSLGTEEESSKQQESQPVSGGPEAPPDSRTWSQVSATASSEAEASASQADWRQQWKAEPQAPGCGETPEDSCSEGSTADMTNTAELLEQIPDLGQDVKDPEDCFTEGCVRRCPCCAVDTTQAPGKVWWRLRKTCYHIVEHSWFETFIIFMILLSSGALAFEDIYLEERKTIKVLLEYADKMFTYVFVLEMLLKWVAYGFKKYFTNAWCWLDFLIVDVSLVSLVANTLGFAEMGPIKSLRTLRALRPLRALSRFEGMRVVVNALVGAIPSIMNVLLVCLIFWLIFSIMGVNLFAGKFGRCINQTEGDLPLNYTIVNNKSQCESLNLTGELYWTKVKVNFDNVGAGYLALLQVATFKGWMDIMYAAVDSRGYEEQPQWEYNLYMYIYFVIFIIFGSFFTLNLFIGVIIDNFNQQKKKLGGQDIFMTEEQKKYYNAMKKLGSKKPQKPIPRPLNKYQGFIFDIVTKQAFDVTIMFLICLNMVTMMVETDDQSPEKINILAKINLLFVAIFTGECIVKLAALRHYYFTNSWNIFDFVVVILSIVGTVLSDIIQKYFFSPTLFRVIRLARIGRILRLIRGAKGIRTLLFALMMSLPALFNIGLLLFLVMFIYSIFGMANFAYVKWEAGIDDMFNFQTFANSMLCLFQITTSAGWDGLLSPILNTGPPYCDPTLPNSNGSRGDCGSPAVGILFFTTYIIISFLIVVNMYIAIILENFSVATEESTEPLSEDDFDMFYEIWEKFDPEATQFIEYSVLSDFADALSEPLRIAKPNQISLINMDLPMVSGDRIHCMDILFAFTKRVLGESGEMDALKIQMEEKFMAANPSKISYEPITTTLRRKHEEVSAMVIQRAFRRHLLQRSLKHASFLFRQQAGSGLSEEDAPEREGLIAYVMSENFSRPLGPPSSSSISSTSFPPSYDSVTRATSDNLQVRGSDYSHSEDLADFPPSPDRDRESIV

[16] = Ames test
[17] = tested on: urinary cGMP; assay: Urinary cGMP assay in rats; assay type: in vivo, rat; settings: 40 mg/kg
[18] = molecular target: T3, CYP1A2 (Homo sapiens, UniProt P05177); settings: at 20 μM
T3 sequence (P05177 1-516): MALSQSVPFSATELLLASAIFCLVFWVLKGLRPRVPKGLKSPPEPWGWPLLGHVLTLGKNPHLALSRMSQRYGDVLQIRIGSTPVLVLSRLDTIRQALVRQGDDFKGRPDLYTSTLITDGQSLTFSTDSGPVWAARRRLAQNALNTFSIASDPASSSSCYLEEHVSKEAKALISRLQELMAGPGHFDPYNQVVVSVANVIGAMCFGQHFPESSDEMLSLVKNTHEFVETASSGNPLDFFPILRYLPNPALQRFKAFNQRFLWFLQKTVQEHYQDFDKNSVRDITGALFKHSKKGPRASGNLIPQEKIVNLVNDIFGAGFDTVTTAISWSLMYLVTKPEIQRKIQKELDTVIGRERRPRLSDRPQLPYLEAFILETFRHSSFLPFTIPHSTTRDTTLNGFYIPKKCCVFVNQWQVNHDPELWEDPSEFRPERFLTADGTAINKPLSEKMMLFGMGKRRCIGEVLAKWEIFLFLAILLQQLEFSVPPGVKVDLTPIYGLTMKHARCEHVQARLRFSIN

[19] = molecular target: T4, CYP2C8 (Homo sapiens, UniProt P10632); assay: CYP inhibition assay; settings: at 20 μM
T4 sequence (P10632 1-490): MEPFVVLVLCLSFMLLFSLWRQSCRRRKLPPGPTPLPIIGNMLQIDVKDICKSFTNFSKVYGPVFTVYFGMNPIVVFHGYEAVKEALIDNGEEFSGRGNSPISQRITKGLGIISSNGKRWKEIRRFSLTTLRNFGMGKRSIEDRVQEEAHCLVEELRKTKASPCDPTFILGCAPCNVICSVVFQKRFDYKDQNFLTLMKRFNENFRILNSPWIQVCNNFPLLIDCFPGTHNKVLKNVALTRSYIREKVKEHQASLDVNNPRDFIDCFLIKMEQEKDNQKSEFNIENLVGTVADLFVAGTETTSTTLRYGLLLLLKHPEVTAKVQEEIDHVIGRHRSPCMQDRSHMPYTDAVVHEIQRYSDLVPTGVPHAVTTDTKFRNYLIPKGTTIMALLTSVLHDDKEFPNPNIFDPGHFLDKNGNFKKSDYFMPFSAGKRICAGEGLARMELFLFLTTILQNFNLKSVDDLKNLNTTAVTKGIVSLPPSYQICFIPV

[20] = molecular target: CYP2D6 (Homo sapiens, UniProt P10635); assay: CYP inhibition assay; settings: at 20 μM
Sequence of CYP2D6 (P10635 whole entry): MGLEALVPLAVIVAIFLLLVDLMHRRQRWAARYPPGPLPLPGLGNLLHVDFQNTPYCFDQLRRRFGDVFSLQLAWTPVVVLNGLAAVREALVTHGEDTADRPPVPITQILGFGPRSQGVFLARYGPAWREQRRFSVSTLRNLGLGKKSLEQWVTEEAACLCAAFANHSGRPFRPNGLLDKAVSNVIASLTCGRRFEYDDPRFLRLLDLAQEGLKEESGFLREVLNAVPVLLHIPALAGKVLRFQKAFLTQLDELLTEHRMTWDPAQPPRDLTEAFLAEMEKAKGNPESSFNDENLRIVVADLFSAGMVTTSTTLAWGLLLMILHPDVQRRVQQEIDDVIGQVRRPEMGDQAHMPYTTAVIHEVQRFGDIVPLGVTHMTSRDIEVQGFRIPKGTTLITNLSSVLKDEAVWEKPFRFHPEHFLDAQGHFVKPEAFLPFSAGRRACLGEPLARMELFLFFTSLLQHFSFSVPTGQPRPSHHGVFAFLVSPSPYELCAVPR

[21] = molecular target: CYP3A4 (Homo sapiens, UniProt P08684); assay: CYP inhibition assay; settings: at 20 μM
Sequence of CYP3A4 (P08684 whole entry): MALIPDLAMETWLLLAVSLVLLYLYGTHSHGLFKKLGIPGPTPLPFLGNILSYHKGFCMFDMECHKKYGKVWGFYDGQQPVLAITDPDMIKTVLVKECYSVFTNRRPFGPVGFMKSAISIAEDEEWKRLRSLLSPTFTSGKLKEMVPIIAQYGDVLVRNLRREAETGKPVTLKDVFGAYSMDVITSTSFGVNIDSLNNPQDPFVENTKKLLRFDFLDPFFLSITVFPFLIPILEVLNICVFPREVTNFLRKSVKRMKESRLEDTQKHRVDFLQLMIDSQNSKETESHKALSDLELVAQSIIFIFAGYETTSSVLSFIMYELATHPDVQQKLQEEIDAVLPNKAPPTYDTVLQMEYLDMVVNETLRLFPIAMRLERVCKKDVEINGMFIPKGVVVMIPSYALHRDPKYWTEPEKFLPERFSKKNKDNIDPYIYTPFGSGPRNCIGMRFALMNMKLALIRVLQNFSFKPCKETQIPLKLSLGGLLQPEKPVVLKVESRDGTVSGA

[22] = Radiotelemetric measurement of blood pressure in rats; settings: telemetric rats, within 24 h
[23] = Transverse aortic constriction; assay type: in vivo; settings: mouse TAC
[24] = 10 mg/kg twice daily for 5 weeks
[25] = twice daily oral 10 or 50 mg/kg

Sequence of human PDE9A (O76083 whole entry): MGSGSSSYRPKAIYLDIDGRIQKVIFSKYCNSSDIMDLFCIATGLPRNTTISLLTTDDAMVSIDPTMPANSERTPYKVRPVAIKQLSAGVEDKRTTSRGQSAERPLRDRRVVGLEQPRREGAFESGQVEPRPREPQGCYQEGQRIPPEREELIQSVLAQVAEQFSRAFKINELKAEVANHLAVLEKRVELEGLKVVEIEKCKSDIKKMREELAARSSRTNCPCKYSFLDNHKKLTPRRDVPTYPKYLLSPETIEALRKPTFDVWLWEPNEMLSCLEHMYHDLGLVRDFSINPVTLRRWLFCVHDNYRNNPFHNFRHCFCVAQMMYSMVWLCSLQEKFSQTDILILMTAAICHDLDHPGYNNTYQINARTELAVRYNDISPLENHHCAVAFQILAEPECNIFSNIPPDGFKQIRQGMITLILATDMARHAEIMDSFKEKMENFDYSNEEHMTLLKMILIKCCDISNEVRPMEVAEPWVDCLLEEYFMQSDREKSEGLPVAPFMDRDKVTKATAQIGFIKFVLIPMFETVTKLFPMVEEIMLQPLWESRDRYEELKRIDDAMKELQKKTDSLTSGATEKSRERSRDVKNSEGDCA

SMILES: CCCC1CNCc2c1[nH]c(=O)c(C#N)c2N1CCC2(CC1)CC2.Cl (single isomer, unassigned; ent-4) [Compound 30, ent-4-(6-Azaspiro[2.5]octan-6-yl)-2-oxo-8-propyl-1,2,5,6,7,8-hexahydro-1,6-naphthyridine-3-carbonitrile Hydrochloride]
- BEI binding efficiency index −log (IC50)/MW × 1000 [1]: 23.9
- IC50 [2]: 34 nM
- IC50 [3]: 42 nM
- PDE2A selectivity factor (PDE#-IC50/PDE9A-IC50) [4]: >650x
- PDE3B selectivity factor (PDE#-IC50/PDE9A-IC50) [5]: >650x
- PDE7B selectivity factor (PDE#-IC50/PDE9A-IC50) [6]: >650x
- PDE10A selectivity factor (PDE#-IC50/PDE9A-IC50) [7]: >650x
- clearance [8]: 15 mL/min/kg
- CYP1A2 induction [9]: no induction
- concentrations at which CYP3A4 mRNA was induced [10]: above 9.2 μM
- reactive metabolites after incubation with rat hepatocytes [11]: no reactive metabolites were formed
- reactive metabolites after incubation with human hepatocytes [12]: no reactive metabolites were formed
- degradation in the presence of human hepatocytes ([12]; after 4 h of incubation): almost no degradation
- inhibition of 75 off-targets (Panlabs) [13]: clean profile
- inhibition of cardiac ion channel hERG [14]: clean profile
- inhibition of cardiac ion channel Nav1.5 [15]: clean profile
- genotoxicity in Ames test [16]: No genotoxicity
- urinary cGMP versus vehicle [17]: nonsignificant trend toward higher cGMP levels
- inhibition of CYP1A2 [18]: No inhibition
- inhibition of CYP2C8 [19]: No inhibition
- inhibition of CYP2D6 [20]: No inhibition
- inhibition of CYP3A4 [21]: No inhibition
- effects on blood pressure ([22]; once daily oral 5 or 40 mg/kg): no significant effects
- effects on heart rate ([22]; once daily oral 5 or 40 mg/kg): no significant effects

- clearance [8]: 8.33 mL/min/kg
SMILES: C[C@@H]1CN(Cc2ncccn2)C[C@H]1c1nc2c(cnn2C2CCOCC2)c(=O)[nH]1 [PF-04447943, 6-[(3S,4S)-4-Methyl-1-(pyrimidin-2-ylmethyl)pyrrolidin-3-yl]-1-(tetrahydro-2H-pyran-4-yl)-1,5-dihydro-4H-pyrazolo[3,4-d]pyrimidin-4-one, reference compound]
- minimal diastolic left ventricular pressure (LVPmin) ([23]; 10 mg/kg bid for five weeks, 10 mg/kg): reduction
- heart function (LVEDP, Tau) [23, 24]: trend for improvement
- hypertrophy of the left atrium [23, 24]: statistically significant reduction
- effects on blood pressure [22, 25]: no significant effects
- effects on heart rate [22, 25]: no significant effects
